Measured values taken from patent US7670997B2, “Ophthalmic compositions comprising a branched, glycerol monoalkyl compound and a fatty acid monoester” (Bausch & Lomb Incorporated, priority 2006, dated 2010).
Where two headings read alike, the source gives them in different places.

Tests used:
[1] = test system: Gram-positive bacteria associated with perspiration odor; details: Sensiva product literature, Schulke & Mayr; cited from earlier work
[2] = for Foam Height Time = 0 min: after 10 seconds of vigorous shaking; for Foam Height Time = 30 min: after 30 minutes of standing
Protocol: In such a test, 50 mL of the solution being tested is placed in a 100 mL graduated cylinder (2.6 cm in diameter). The foam height is measured after 10 seconds of vigorous shaking of the cylinder containing the test solution. Foam height after 30 minutes of standing is also measured to evaluate foam draining propensity of the test solutions.

[3] = octoxyglycerin 0.05 ppm in Table 1 formulation
[4] = octoxyglycerin 0.10 ppm in Table 1 formulation
[5] = octoxyglycerin 0.25 ppm in Table 1 formulation
[6] = octoxyglycerin 0.50 ppm in Table 1 formulation
[7] = octoxyglycerin 0.75 ppm in Table 1 formulation
[8] = octoxyglycerin 1.00 ppm in Table 1 formulation
[9] = octoxyglycerin 2.00 ppm in Table 1 formulation

For `CCCCC(CC)COCC(O)CO` (stereo not shown) [octoxyglycerin, 3-[(2-ethylhexyl)oxy]-1,2-propanediol], the “antimicrobial activity against Gram-positive bacteria” value [1] is given as “exhibit antimicrobial activity”, the control of foaming ([2]; amounts over 0.05 ppm, multi-purpose lens care products with over 3.0 wt % foaming surfactants (Pluronic F127, Tetronic 1107)) is given as “effective control of foaming” and the “Foam Height Time = 0 min” value [2, 3] is given as 3.8 ± 0.2 cm. For the same molecule, the “Foam Height Time = 30 min” value [2, 3] was 3.0 ± 0.3 cm, the “Foam Height Time = 0 min” value [2, 4] was 2.6 ± 0.4 cm and the “Foam Height Time = 30 min” value [2, 4] was 2.0 ± 0.2 cm. The “Foam Height Time = 0 min” value [2, 5] was 1.3 ± 0.2 cm, the “Foam Height Time = 30 min” value [2, 5] was 0.8 ± 0.2 cm and the “Foam Height Time = 0 min” value [2, 6] was 0.7 ± 0.2 cm. For the same molecule, the “Foam Height Time = 30 min” value [2, 6] was 0.4 ± 0.1 cm, the “Foam Height Time = 0 min” value [2, 7] was 0.3 ± 0.1 cm and the “Foam Height Time = 30 min” value [2, 7] was 0.2 ± 0.1 cm. For the same molecule, the “Foam Height Time = 0 min” value [2, 8] was 0.1 ± 0.0 cm, the “Foam Height Time = 30 min” value [2, 8] was 0.0 ± 0.0 cm and the “Foam Height Time = 0 min” value [2, 9] was 0.1 ± 0.0 cm. The “Foam Height Time = 30 min” value [2, 9] was 0.0 ± 0.0 cm.
